Measured values: paper PMC6423129, “Activity and structural analysis of GRL-117C: a novel small molecule CCR5 inhibitor active against R5-tropic HIV-1s” (Scientific Reports, 2019)

Assays:
Type in all cases: cell-based
[1] = tested on: Transmitter/founder (T/F) HIV-1 viruses; assay: MAGI assay, all four T/F viruses (range); conditions: Human immunodeficiency virus 1, MAGI, read-out: IC50 values (range over four T/F viruses)
From the text: (§1) We also examined the activity of GRL-compounds against Transmitter/founder (T/F) HIV-1 viruses. T/F viruses are involved in the initial infection. It is considered that T/F viruses virtually always use CCR5 rather than CXCR4 and infect T cells but not macrophages because […] of CD4 is needed to mediate virus entry for the initial transmission[20]–[24]. […] We obtained four HIV-1 T/F infectious clones. We determined the antiviral activity of GRL-117C, GRL-10007C and GRL-10018C on these HIV-1 clones using MAGI assay.
MAGI-CCR5 cells[18] were maintained in DMEM supplemented with 10% fetal calf serum (FCS: Gemini Bio-Products, West Sacramento, CA), 200 μg/ml G418, 100 μg/ml hygromycin B, and 100 μg/ml zeomycin. The Chinese hamster ovary (CHO) cells expressing CCR5[19] were maintained in Ham’s F-12 medium (GIBCO-BRL, Rockville, MD) supplemented with 10% FCS, 50 U/ml penicillin, and 50 μg/ml streptomycin in the presence of 5 μg/ml blasticidin S hydrochloride. TZM-bl cells were obtained from the NIH AIDS Reagent Program, and were cultured in DMEM with 10% FCS. […]
Antiviral assays using PHA-PBMCs (p24 assay) were conducted as previously reported[16],[38]. […] The amount of p24 antigens produced by the cells was determined on day 7 in the culture via a commercially available ELISA kit (PerkinElmer). […]

CC1/85 cl.7 = assay: Anti-HIV-1 assay, drug-naive clinical strain CC1/85 cl.7; conditions: Human immunodeficiency virus 1
Description: (§2) MAGI-CCR5 cells[18] were maintained in DMEM supplemented with 10% fetal calf serum (FCS: Gemini Bio-Products, West Sacramento, CA), 200 μg/ml G418, 100 μg/ml hygromycin B, and 100 μg/ml zeomycin. The Chinese hamster ovary (CHO) cells expressing CCR5[19] were maintained in Ham’s F-12 medium (GIBCO-BRL, Rockville, MD) supplemented with 10% FCS, 50 U/ml penicillin, and 50 μg/ml streptomycin in the presence of 5 μg/ml blasticidin S hydrochloride. TZM-bl cells were obtained from the NIH AIDS Reagent Program, and were cultured in DMEM with 10% FCS. Peripheral blood mononuclear cells (PBMCs) were isolated from buffy coats of HIV-1 seronegative individuals, and were activated with 10 μg/ml phytohemagglutinin (PHA) prior to use[16]. A laboratory wild-type R5-HIV-1 strain (HIV-1Ba-L)[37] was employed for drug susceptibility assays. AD101 (experimental CCR5 inhibitor) and VVC-resistant HIV clones[7],[8] were provided by Dr. John P. Moore of Cornell University for this study. The clones were propagated with activated PBMCs, and were used for the assays. A clinical HIV-1 strain, HIV-1KP-5pc, and an MVC-resistant isolate, HIV-1KP-5mvcR, were prepared and used for antiviral assays, as previously described[10],[38]. The following reagents (plasmids) for T/F HIV-1 viruses[22],[24] were obtained through the NIH AIDS Reagent Program, Division of AIDS, NIAID, NIH: pCH040.c/2625 (cat# 11740), pCH106.c/2633 (cat# 11743), pTHRO.c/2626 (cat# 11745), and pCH058.c/2960 (cat# 11856), from Dr. John Kappes and Dr. Christina Ochsenbauer.
(§3) Antiviral assays using PHA-PBMCs (p24 assay) were conducted as previously reported[16],[38]. In brief, PHA-PBMCs (1 × 10^6/ml) were exposed to 50 TCID50 of HIV-1Ba-L or drug-resistant HIV-1 infectious clones in the presence or absence of various concentrations of drugs; 10-fold serial dilutions were performed in 96-well microculture plates. The amount of p24 antigens produced by the cells was determined on day 7 in the culture via a commercially available ELISA kit (PerkinElmer). The p24 production level in drug-free control cell cultures was used as the reference. […] Antiviral assays using MAGI-CCR5 cells (MAGI assay) were conducted as previously reported[16],[39]. Single-round virus infection assays using TZM-bl cells infected with R5-HIV-1s (HIV-1YU2, HIV-1KP-5pc, and HIV-1KP-5mvcR)[10] were also conducted as previously described.

pCH0.6.c/2633 = assay: MAGI assay, T/F HIV-1 clone pCH0.6.c/2633; conditions: Human immunodeficiency virus 1, MAGI
From the text: as §1
as §2, with “A clinical HIV-1 strain, HIV-1KP-5pc, and an MVC-resistant isolate, HIV-1KP-5mvcR, were prepared and used for antiviral assays, as previously described[10],[38].” left out
as §3

HIV-1KP-5pc = assay: TZM-bl single-round infection assay, HIV-1KP-5pc; conditions: Human immunodeficiency virus 1, TZM-bl
Description: as §2, §3

R5-HIV-1Ba-L = assay: MAGI assay using MAGI/CCR5 cells and R5-HIV-1Ba-L; conditions: Human immunodeficiency virus 1, BAL, Ba-L (MAGI)
Description: as §2, §3

For C=CCN(C(=O)OCc1ccc([N+](=O)[O-])cc1)C1CC2CCC(C1)N2CCC(C)(CN(C)S(=O)(=O)c1ccccc1)c1ccccc1 (centres unmarked) [GRL-117C], the IC50 [1] was 1.9 to 3.2 nM, the IC50 (CC1/85 cl.7) was 3.5 nM and the IC90 (CC1/85 cl.7) was 28.9 nM. The IC50 (pCH0.6.c/2633) was 1.9 ± 0.3 nM, the IC90 (HIV-1KP-5pc) was 767 nM and the IC50 (HIV-1KP-5pc; KP-5pc, drug-sensitive clinical strain, TZM-bl assay, mean ± SD) was 160 ± 30 nM. For the same compound, the IC50 (R5-HIV-1Ba-L) was 0.6 nM and the IC90 (R5-HIV-1Ba-L) was 8.9 nM.
